# What was measured:
# [1] = target: T1, Tyrosine-protein kinase BTK (Homo sapiens, UniProt Q06187); assay: Inhibition of BTK (unknown origin)
# [2] = Inhibition of CD69 expression on CD19 positive B cells in anti-IgD stimulated human whole blood; format: functional, tissue-based; conditions: CD19 positive B cell
# [3] = Metabolic stability in human liver microsomes assessed as intrinsic clearance; format: ADME, Microsome; conditions: read-out: CLH
# [4] = Metabolic stability in rat liver microsomes assessed as intrinsic clearance; format: ADME, Microsome; conditions: read-out: CLH
# [5] = target: T1, Tyrosine-protein kinase BTK; assay: Inhibition of pBTK in human whole blood; format: tissue-based
# [6] = target: Tyrosine-protein kinase Blk (Homo sapiens, UniProt P51451); assay: Binding affinity to BLK (unknown origin) assessed as dissociation constant by KINOMEscan analysis
# [7] = target: T2, Tyrosine-protein kinase TXK (Homo sapiens, UniProt P42681); assay: Binding affinity to TXK (unknown origin) assessed as dissociation constant by KINOMEscan analysis
# T2 sequence (P42681 whole entry): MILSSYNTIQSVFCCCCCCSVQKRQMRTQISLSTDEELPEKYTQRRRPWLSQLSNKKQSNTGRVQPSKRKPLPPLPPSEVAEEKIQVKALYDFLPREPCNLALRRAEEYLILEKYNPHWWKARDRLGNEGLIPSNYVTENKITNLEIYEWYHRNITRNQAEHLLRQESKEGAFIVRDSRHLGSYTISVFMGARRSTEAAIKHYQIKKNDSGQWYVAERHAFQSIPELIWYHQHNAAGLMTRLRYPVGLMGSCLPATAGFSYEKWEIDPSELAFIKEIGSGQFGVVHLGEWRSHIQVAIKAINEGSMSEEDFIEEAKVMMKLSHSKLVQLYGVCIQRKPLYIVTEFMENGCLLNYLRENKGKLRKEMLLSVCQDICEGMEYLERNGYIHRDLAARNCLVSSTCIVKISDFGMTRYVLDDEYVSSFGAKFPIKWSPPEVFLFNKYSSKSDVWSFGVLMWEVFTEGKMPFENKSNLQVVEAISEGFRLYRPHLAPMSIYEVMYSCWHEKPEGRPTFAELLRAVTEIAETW
# [8] = Plasma protein binding in human assessed as unbound fraction by rapid equilibrium dialysis method; format: ADME, cell-free
# [9] = Solubility of the compound at pH 7; format: physicochemical; conditions: buffer
# [10] = Plasma protein binding in rat assessed as unbound fraction by rapid equilibrium dialysis method; format: ADME, cell-free
# [11] = Clearance in iv dosed Sprague-Dawley rat; format: ADME, organism-based; conditions: in vivo
# [12] = target: Receptor tyrosine-protein kinase erbB-2 (Homo sapiens, UniProt P04626); assay: Binding affinity to ERBB2 (unknown origin) assessed as dissociation constant by KINOMEscan analysis
# [13] = target: T3, Tyrosine-protein kinase Tec (Homo sapiens, UniProt P42680); assay: Binding affinity to TEC (unknown origin) assessed as dissociation constant by KINOMEscan analysis
# T3 sequence (P42680 whole entry): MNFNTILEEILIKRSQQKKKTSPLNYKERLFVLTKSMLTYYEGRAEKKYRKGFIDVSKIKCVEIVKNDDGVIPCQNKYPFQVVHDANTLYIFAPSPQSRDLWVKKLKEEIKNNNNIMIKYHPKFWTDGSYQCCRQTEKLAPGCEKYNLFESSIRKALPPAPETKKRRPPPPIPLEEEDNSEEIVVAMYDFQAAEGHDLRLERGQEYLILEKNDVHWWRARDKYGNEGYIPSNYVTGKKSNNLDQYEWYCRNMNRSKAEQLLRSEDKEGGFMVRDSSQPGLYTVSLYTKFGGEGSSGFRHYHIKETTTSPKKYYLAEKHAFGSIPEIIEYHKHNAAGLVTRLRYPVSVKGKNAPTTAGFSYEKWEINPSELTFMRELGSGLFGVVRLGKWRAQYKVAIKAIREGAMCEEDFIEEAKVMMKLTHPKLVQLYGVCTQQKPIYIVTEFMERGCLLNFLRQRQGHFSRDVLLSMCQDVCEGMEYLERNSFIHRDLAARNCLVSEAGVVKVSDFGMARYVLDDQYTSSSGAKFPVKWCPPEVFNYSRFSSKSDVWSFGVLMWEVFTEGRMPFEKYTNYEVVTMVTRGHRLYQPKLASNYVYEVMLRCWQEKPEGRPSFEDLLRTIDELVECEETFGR
# T1 sequence (Q06187 whole entry): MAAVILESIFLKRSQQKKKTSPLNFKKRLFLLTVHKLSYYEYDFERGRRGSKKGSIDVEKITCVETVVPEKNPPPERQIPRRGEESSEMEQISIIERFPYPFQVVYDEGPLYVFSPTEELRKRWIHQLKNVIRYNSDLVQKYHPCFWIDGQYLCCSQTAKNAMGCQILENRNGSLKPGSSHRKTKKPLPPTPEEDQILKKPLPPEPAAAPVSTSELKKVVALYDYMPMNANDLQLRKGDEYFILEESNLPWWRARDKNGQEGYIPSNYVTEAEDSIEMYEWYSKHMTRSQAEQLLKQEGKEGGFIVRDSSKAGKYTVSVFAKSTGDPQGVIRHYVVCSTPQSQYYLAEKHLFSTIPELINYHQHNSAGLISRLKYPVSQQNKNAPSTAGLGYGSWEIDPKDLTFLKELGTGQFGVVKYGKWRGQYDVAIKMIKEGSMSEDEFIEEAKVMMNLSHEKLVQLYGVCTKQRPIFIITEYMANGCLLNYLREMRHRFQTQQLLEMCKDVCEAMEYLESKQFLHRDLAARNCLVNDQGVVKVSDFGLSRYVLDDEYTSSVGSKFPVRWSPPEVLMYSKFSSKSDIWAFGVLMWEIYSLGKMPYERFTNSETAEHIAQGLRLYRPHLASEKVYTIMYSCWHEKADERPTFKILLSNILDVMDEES
# Tyrosine-protein kinase Blk, sequence (P51451 whole entry): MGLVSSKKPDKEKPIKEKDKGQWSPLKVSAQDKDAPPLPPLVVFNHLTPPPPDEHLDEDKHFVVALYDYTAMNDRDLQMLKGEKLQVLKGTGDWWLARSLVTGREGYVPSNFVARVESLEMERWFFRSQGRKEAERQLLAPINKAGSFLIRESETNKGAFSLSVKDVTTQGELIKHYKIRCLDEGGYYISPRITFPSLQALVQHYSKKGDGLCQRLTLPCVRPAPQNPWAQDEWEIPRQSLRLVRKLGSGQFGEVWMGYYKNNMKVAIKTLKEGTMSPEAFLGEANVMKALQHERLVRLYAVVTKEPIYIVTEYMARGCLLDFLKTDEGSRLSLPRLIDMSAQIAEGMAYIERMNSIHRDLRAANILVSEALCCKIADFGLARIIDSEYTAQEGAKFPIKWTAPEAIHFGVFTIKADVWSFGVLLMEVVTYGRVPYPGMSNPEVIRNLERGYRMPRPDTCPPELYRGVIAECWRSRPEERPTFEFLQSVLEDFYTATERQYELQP
# Receptor tyrosine-protein kinase erbB-2, sequence (P04626 whole entry): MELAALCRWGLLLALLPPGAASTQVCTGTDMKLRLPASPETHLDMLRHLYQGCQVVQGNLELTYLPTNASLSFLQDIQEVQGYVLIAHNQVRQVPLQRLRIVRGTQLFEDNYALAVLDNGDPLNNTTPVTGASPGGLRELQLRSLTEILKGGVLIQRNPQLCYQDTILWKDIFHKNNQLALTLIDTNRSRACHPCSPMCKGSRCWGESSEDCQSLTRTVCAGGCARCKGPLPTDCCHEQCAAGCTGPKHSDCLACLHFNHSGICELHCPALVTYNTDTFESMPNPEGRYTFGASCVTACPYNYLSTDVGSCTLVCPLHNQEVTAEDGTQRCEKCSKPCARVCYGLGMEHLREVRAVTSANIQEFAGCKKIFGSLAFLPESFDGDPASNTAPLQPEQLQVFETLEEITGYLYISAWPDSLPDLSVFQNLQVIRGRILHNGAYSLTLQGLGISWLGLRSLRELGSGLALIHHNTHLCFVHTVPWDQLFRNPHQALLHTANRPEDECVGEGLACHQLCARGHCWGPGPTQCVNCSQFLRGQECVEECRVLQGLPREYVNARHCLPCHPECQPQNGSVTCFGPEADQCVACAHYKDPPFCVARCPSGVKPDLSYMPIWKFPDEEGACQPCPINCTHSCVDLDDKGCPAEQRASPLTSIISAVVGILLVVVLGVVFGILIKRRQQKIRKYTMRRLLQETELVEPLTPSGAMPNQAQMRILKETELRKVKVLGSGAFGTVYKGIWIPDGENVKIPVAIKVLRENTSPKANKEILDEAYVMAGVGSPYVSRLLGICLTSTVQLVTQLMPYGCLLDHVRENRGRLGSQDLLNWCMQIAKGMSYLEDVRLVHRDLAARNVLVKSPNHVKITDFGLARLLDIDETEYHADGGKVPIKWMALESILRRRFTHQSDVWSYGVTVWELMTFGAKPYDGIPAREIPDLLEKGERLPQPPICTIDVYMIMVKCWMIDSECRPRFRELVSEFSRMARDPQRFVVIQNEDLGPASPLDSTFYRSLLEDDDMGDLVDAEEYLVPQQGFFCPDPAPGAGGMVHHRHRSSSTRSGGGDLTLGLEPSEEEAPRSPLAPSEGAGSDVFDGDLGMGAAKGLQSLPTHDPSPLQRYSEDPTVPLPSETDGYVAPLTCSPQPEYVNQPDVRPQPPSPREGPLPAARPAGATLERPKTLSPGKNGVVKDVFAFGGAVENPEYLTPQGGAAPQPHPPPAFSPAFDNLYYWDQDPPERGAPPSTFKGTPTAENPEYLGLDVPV
Compound,IC50 [1] [µM],IC50 [2] [µM],CLint scaled [3] [L/h/kg],CLint scaled [4] [L/h/kg],further results
C=CC(=O)N(C)CCOc1cnccc1-c1ccc(CN2CCN(C)CC2=O)c(C)c1,0.315,> 10,5.7,37.2,–
CCN1CCN(Cc2ccc(-c3ccnc(Nc4cnn(C)c4)n3)cc2C)C(=O)C1,0.52,–,–,–,–
Cc1cc(-c2ccnc(Nc3cnn(C)c3)n2)ccc1CN1CCN(C2CCC2)CC1=O,0.011,–,–,–,–
C=CC(=O)N(C)CCOc1cncnc1-c1ccc(CN2CCN(CC(F)(F)F)CC2=O)c(C)c1,0.012,1.99,19,66.6,–
Cc1cc(-c2ccnc(Nc3cnn(C)c3)n2)ccc1CN1CCN(CC2CCC2)CC1=O,0.003,–,–,–,IC50 [5]: 0.93 µM
Cc1cc(-c2ccnc(Nc3cnn(C4CN(C)C4)c3)n2)ccc1CN1CCN(CC(C)(C)C)CC1=O,0.007,–,–,–,IC50 [5]: 2.65 µM
Cc1cc(-c2ccnc(Nc3cnn(C)c3)n2)ccc1CN1CCN(CC2CN(C)C2)CC1=O,7.3,–,–,–,–
C=CC(=O)N(C)CCOc1cncnc1-c1ccc(CN2CCN(CC3(C)CC3)CC2=O)c(C)c1,0.00098,0.13,33.5,161,–
Cc1cc(-c2ccnc(Nc3cnn(C4CN(C)C4)c3)n2)ccc1CN1CCN(CC(C)C)CC1=O,0.007,–,–,–,IC50 [5]: 0.35 µM
CC#CC(=O)N1CCC[C@H]1c1nc(-c2ccc(C(=O)Nc3ccccn3)cc2)c2c(N)nccn12 [ACALABRUTINIB],–,–,–,–,Kd [6]: 0.018 µM; Kd [7]: 0.024 µM
Cc1cc(-c2ccnc(Nc3cnn(C)c3)n2)ccc1CN1CCN(C(C)(C)C)CC1=O,0.043,–,–,–,–
C=CC(=O)N(C)CCOc1cncnc1-c1ccc(CN2CCN(CC(C)(C)C)CC2=O)c(C)c1,0.00135,0.63,82.2,150,fraction unbound [8]: 0.14; solubility [9]: 0.013 mg/mL
Cc1cc(-c2ccnc(Nc3cnn(C)c3)n2)ccc1CN1CCN(CC2CCOC2)CC1=O (stereo not drawn),0.18,–,–,–,–
C=CC(=O)N(C)CCOc1cncnc1-c1ccc(CN2CCN(CC3CCC3)CC2=O)c(C)c1,0.0016,1.08,23,113,–
C=CC(=O)N(C)CCOc1cncnc1-c1ccc(CN2CCN(C3CCOC3)CC2=O)c(F)c1 (stereo not drawn),0.268,> 10,4.86,18.5,–
C=CC(=O)N(C)CCOc1c(-c2ccc(CN3CCN(CC(C)C)CC3=O)c(C)c2)ccnc1N,0.00069,0.36,20,47.6,fraction unbound [8]: 0.29
C=CC(=O)N(C)CCOc1cncnc1-c1ccc(CN2CCN(CC(C)C)CC2=O)c(C)c1,0.00083,0.13,26.6,120,fraction unbound [8]: 0.24; fraction unbound [10]: 0.07
Cc1cc(-c2ccnc(Nc3cnn(CCO)c3)n2)ccc1CN1CCN(CC(C)C)CC1=O,0.003,–,–,–,IC50 [5]: 0.59 µM
CC(=O)N(C)CCOc1cncnc1-c1ccc(CN2CCN(CC(C)(C)C)CC2=O)c(C)c1,1.72,> 10,31.8,90,fraction unbound [8]: 0.31
Cc1cc(-c2ccnc(Nc3cnn(C)c3)n2)ccc1CN1CCN(CC2CN(O)C2)CC1=O,0.08,–,–,–,–
CC(C)(C)CN1CCN(Cc2ccc(-c3ccnc(Nc4cnn(CCO)c4)n3)cc2C(F)(F)F)C(=O)C1,0.0004,–,–,–,IC50 [5]: 0.48 µM

Compound,IC50 [1] [µM],IC50 [2] [µM],CLint scaled [3] [L/h/kg],CLint scaled [4] [L/h/kg],further results
Cc1cc(-c2ccnc(Nc3cnn(C)c3)n2)ccc1CN1CCN(CC2CC(F)(F)C2)CC1=O,0.028,–,–,–,–
C=CC(=O)N(C)CCOc1c(N)ncnc1-c1cc(F)cc(NC(=O)c2ccc(C3CC3)cc2F)c1C [REMIBRUTINIB],–,0.036,4.8,5.82,clearance [11]: 12.8 L/h/kg; Kd [6]: 30 µM; Kd [7]: 17 µM
C=CC(=O)N1CCC([C@@H]2CCNc3c(C(N)=O)c(-c4ccc(Oc5ccccc5)cc4)nn32)CC1 [ZANUBRUTINIB],–,–,–,–,Kd [12]: 0.076 µM; Kd [13]: 0.018 µM; Kd [7]: 0.98 µM
C=CC(=O)N(C)CCOc1cnccc1-c1ccc(CN2CCN(CCC)CC2=O)c(C)c1,0.0048,0.89,17.2,92.4,–
Cc1cc(-c2ccnc(Nc3cnn(CCO)c3)n2)ccc1CN1CCN(CC(C)(C)C)CC1=O,0.001,–,–,–,IC50 [5]: 0.81 µM
CC(C)CN1CCN(Cc2ccc(-c3ccnc(Nc4cnn(CCO)c4)n3)cc2Cl)C(=O)C1,0.004,–,–,–,IC50 [5]: 0.99 µM
C=CC(=O)N(C)CCOc1cnccc1-c1ccc(CN2CCN(CC(C)C)CC2=O)c(C)c1,0.00065,0.16,38,140,–
Cc1cc(-c2ccnc(Nc3cnn(C)c3)n2)ccc1CN1CCN(CC2(C)CC2)CC1=O,0.007,–,–,–,–
CC(C)CN1CCN(Cc2ccc(-c3ccnc(Nc4cnn(CCO)c4)n3)cc2C(F)(F)F)C(=O)C1,0.001,–,–,–,IC50 [5]: 0.12 µM
Cc1cc(-c2ccnc(Nc3cnn(C)c3)n2)ccc1CN1CCN(CC(C)C)CC1=O,0.003,–,–,–,IC50 [5]: 0.31 µM
C=CC(=O)N(C)CCOc1cncnc1-c1ccc(CN2CCN(CC(C)(C)C)CC2=O)cc1,0.017,4.7,16.2,55.8,–
Cc1cc(-c2ccnc(Nc3cnn(C)c3)n2)ccc1CN1CCN(CC(C)(C)C)CC1=O,0.001,> 10,13.7,29.6,IC50 [5]: 1.05 µM; fraction unbound [8]: 0.014; solubility [9]: 0.011 mg/mL
C=CC(=O)N(C)CCOc1cnccc1-c1ccc(CN2CCN(CC3CCC3)CC2=O)c(C)c1,0.0012,1.08,41.2,136,–
C=CC(=O)N(C)CCOc1cnccc1-c1ccc(CN2CCN(C(C)C)CC2=O)c(C)c1,0.0029,0.92,8.1,74.4,–
Cc1cc(-c2ccnc(Nc3cnn(C)c3)n2)ccc1CN1CCN(CC(C)(C)C#N)CC1=O,0.099,–,–,–,–
C=CC(=O)N(C)CCOc1cncnc1-c1ccc(CN2CCN(CC(C)(C)C)CC2=O)c(F)c1,0.00044,0.3,48.5,221,–
Cc1cc(-c2ccnc(Nc3cnn(C)c3)n2)ccc1CN1CCN(CC2CNC2)CC1=O,4.2,–,–,–,–
C=CC(=O)N(C)CCOc1cnccc1-c1ccc(CN2CCN(CC(C)(C)C)CC2=O)c(C)c1,0.00044,0.3,48.5,221,fraction unbound [8]: 0.11; solubility [9]: 0.055 mg/mL
Cc1cc(-c2ccnc(Nc3cnn(C)c3)n2)ccc1CN1CCN(CC(F)(F)F)CC1=O,0.16,–,–,–,–
C=CC(=O)N(C)CCOc1cnccc1-c1ccc(CN2CCN(CC)CC2=O)c(C)c1,0.032,4.41,6.78,35.5,–

# — ChEMBL document CHEMBL5131445, “Optimization of a novel piperazinone series as potent selective peripheral covalent BTK inhibitors” (Bioorg Med Chem Lett, 2022)
